The numbers were not newly measured in patent US11903920B2, “Cannabinoid formulation: production method and use” (CHIROSYN DISCOVERY TECHNOLOGIES INC., priority 2022, dated 2024), which cites them from elsewhere.

For the data set the following is noted: depending on the method and route of administration.

Turning to `C=C(C)[C@@H]1CCC(C)=C[C@H]1c1c(O)cc(CCCCC)cc1O` [CBD, 2-[1R-3-methyl-6R-(1-methylethenyl)-2-cyclohexen-1-yl]-5-pentyl-1,3-benzenediol], the Half-life was 1.4 to 120 h.
